Experimental data published in US12509460B2 (Skyhawk Therapeutics, Inc., priority 2019, dated 2025).
pEC50: −log10 of the molar value. Read-outs that look alike come from different tables or passages of the source.

Legend:
[1] = tested on: mHTT protein in GM04724 (CAG 70/20) Huntington's disease patient lymphoblast cells; assay: mHTT protein assay, 2B7-MW1 assay via Mesoscale Discovery (MSD); assay type: cell-based, human
Summary of the method: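 Patient lymphoblasts treated 48 h with compound from 10 μM to 0.6 nM. mHTT quantified by MSD 2B7-MW1 immunoassay, whose signal depends on polyQ expansion and HTT size. Viability measured on a replicate plate by CellTiter Glo.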

[2] = tested on: SMN FL and SMN Δ7 in spinal muscular atrophy (SMA) patient fibroblasts (GM03813, Coriell); assay: Quantitative splicing assay (SMN), qPCR; assay type: cell-based, human; details: read-out: SMN2 Splicing FL EC50
Experimental: Spinal muscular atrophy (SMA) patient fibroblasts (GM03813, Coriell) are plated in 96-well plates at 50,000 cells/well. […] Treated cells are lysed and cDNA synthesized using the Fast Advanced Cells-to-Ct kit (Thermofisher A35378) according to the manufacturer's instructions. 2 μL of each cDNA are used in qPCR reactions. […] Reactions are run in a Quant Studio 6 qPCR instrument with default settings.

MDR1 = assay: Blood-brain-barrier (BBB) penetration potential via MDCK-MDR1 permeability assay; details: dog, MDCK-MDR1, pH 7.4, MDCK-MDR1: Efflux
MDR1 (P-gp) = assay: as above; details: dog; for Papp A→B at 120 min, 5 μM: MDCK-MDR1, pH 7.4, MDCK-MDR1: Papp A-B; for Papp B→A at 120 min, 5 μM: MDCK-MDR1, pH 7.4, MDCK-MDR1: Papp B-A
[3] = tested on: MDR1-MDCK cell monolayers; assay: as above
[4] = tested on: SMN protein in spinal muscular atrophy (SMA) patient fibroblasts (GM03813, Coriell); assay: SMN protein assay, Mesoscale Discovery (MSD); assay type: cell-based, human; details: read-out: SMN2 protein EC50
Summary of the method: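 SMA patient fibroblasts (GM03813) seeded at 7000 cells/well and exposed to compound at 2.5 μM to 0.6 nM for 48 hours. Lysates assayed for SMN by MSD immunoassay, with absolute SMN amount calculated from a per-plate SMN standard curve (1 μg/ml to 19.5 pg/ml).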

[5] = GM04724 Huntington's disease patient lymphoblasts
[6] = Homo sapiens, Fibroblast, 24 h, SMA patient fibroblasts GM03813, 24 h, qPCR
[7] = SMA patient fibroblasts GM03813, 48 hours, MSD

| Compound | pEC50 [1, 5] | pEC50 [2, 6] | efflux ratio at 120 min, 5 μM (MDR1; efflux ratio) | Papp A→B at 120 min, 5 μM (MDR1 (P-gp); A-B direction) | Papp B→A at 120 min, 5 μM (MDR1 (P-gp); B-A direction) | MDCK-MDR1: % Recov A-B ([3]; A-B direction) | MDCK-MDR1: % Recov B-A ([3]; B-A direction) | pEC50 [4, 7] | pEC50 ([1]; GM04724 (CAG 70/20) Huntington's disease patient lymphoblasts) | pEC50 ([2]; Homo sapiens, Fibroblast, 24 h, SMA patient fibroblasts (GM03813), 24 h) | efflux ratio at 120 min, 5 μM (MDR1) | Papp A→B at 120 min, 5 μM (MDR1 (P-gp); A-B) | Papp B→A at 120 min, 5 μM (MDR1 (P-gp); B-A) | MDCK-MDR1: % Recov A-B ([3]; A-B) | MDCK-MDR1: % Recov B-A ([3]; B-A) | pEC50 ([4]; SMA patient fibroblasts (GM03813), 48 hours) | mHTT protein EC50 [1, 5] | pEC50 ([2]; SMA patient fibroblasts GM03813, 24 h, qPCR) |
| --- | --- | --- | --- | --- | --- | --- | --- | --- | --- | --- | --- | --- | --- | --- | --- | --- | --- | --- |
| CN(c1ccc(-c2ccc(-n3cnc(C#N)c3)cc2O)nn1)[C@@H]1C[C@H]2CC[C@H](N2)[C@@H]1F [Compound 69A, 1-(4-(6-(((1S,2S,3R,5R)-2-fluoro-8-azabicyclo[3.2.1]octan-3-yl)(methyl)amino)pyridazin-3-yl)-3-hydroxyphenyl)-1H-imidazole-4-carbonitrile] | 6.30 to 7.00 | 7.00 to 7.29 | 29 | 1.36 ×10⁻⁶ cm/s | 39.4 ×10⁻⁶ cm/s | 87% | 86% | 7.30 to 7.80 | – | – | – | – | – | – | – | – | – | – |
| Cc1cc(=O)c2cc(O)c(-c3ccc(N(C)[C@H]4C[C@@H]5CC[C@H]([C@H]4F)N5C)nn3)cc2o1 [Compound 99B, 7-(6-(((1R,2R,3S,5S)-2-fluoro-8-methyl-8-azabicyclo[3.2.1]octan-3-yl)(methyl)amino)pyridazin-3-yl)-6-hydroxy-2-methyl-4H-chromen-4-one] | – | – | – | – | – | – | – | – | 6.30 to 7.00 | 7.00 to 7.29 | 21 | 2.74 ×10⁻⁶ cm/s | 56.7 ×10⁻⁶ cm/s | 103% | 112% | 7.82 to 11.00 | – | – |
| COc1cn(-c2ccc(-c3ccc(N(C)[C@@H]4C[C@H]5CC(F)(F)[C@@H](C4)N5)nn3)c(O)c2)cn1 [Compound 19A, 2-(6-(((1S,3R,5R)-6,6-difluoro-8-azabicyclo[3.2.1]octan-3-yl)(methyl)amino)pyridazin-3-yl)-5-(4-methoxy-1H-imidazol-1-yl)phenol] | 7.00 to 7.29 | 7.00 to 7.29 | 6 | 10.1 ×10⁻⁶ cm/s | 56.6 ×10⁻⁶ cm/s | 81% | 94% | 7.82 to 11.00 | – | – | – | – | – | – | – | – | – | – |
| CN(c1ccc(-c2ccc(-c3cnn(C(F)F)c3)cc2O)nn1)[C@@H]1C[C@H]2CCC[C@H](N2)[C@@H]1F [Compound 21A, 5-(1-(difluoromethyl)-1H-pyrazol-4-yl)-2-(6-(((1S,2S,3R,5R)-2-fluoro-9-azabicyclo[3.3.1]nonan-3-yl)(methyl)amino)pyridazin-3-yl)phenol] | 7.30 to 7.80 | 7.00 to 7.29 | 10 | 1.99 ×10⁻⁶ cm/s | 19.3 ×10⁻⁶ cm/s | 34% | 71% | 7.82 to 11.00 | – | – | – | – | – | – | – | – | – | – |
| CN(c1ccc(-c2cc3oc(=O)n(C)c3cc2O)nn1)[C@H]1C[C@@H]2CC[C@@H](N2)[C@H]1F (single isomer, unassigned) [Compound 79B] | 7.00 to 7.29 | 6.30 to 7.00 | 16 | 2.69 ×10⁻⁶ cm/s | 42.9 ×10⁻⁶ cm/s | 90% | 99% | 7.30 to 7.80 | – | – | – | – | – | – | – | – | – | – |
| Cc1ccc(-c2ccc(-c3ccc(N(C)[C@@H]4C[C@H]5CCC[C@H](N5)[C@@H]4F)nn3)c(O)c2)nn1 [Compound 27A, 2-(6-(((1S,2S,3R,5R)-2-fluoro-9-azabicyclo[3.3.1]nonan-3-yl)(methyl)amino)pyridazin-3-yl)-5-(6-methylpyridazin-3-yl)phenol] | 6.30 to 7.00 | 7.00 to 7.29 | 43 | 1.08 ×10⁻⁶ cm/s | 46.6 ×10⁻⁶ cm/s | 90% | 86% | 7.82 to 11.00 | – | – | – | – | – | – | – | – | – | – |
| CN(c1ccc(-c2cc3ncn(CC(F)(F)F)c(=O)c3cc2O)nn1)[C@H]1C[C@@H]2CCC[C@@H](N2)[C@H]1F [Compound 58B, 7-(6-(((1R,2R,3S,5S)-2-fluoro-9-azabicyclo[3.3.1]nonan-3-yl)(methyl)amino)pyridazin-3-yl)-6-hydroxy-3-(2,2,2-trifluoroethyl)quinazolin-4(3H)-one] | – | 7.82 to 11.00 | 126 | 0.43 ×10⁻⁶ cm/s | 53.9 ×10⁻⁶ cm/s | 76% | 85% | 7.82 to 11.00 | – | – | – | – | – | – | – | – | E (501 ≤ E ≤ 10.000) | – |
| CN(c1ccc(-c2cc3ncn(CC(F)(F)F)c(=O)c3cc2O)nn1)[C@H]1C[C@@H]2CC[C@@H](N2)[C@H]1F [Compound 81B, 7-(6-(((1R,2R,3S,5S)-2-fluoro-8-azabicyclo[3.2.1]octan-3-yl)(methyl)amino)pyridazin-3-yl)-6-hydroxy-3-(2,2,2-trifluoroethyl)quinazolin-4(3H)-one] | 7.00 to 7.29 | 7.30 to 7.80 | 138 | 0.4 ×10⁻⁶ cm/s | 54.6 ×10⁻⁶ cm/s | 96% | 100% | 7.82 to 11.00 | – | – | – | – | – | – | – | – | – | – |
| CN(c1ccc(-c2ccc(-c3ccccn3)cc2O)nn1)[C@@H]1C[C@H]2CCC[C@H](N2)[C@@H]1F [Compound 23A, 2-(6-(((1S,2S,3R,5R)-2-fluoro-9-azabicyclo[3.3.1]nonan-3-yl)(methyl)amino)pyridazin-3-yl)-5-(pyridin-2-yl)phenol] | 7.00 to 7.29 | 7.00 to 7.29 | 10 | 3.33 ×10⁻⁶ cm/s | 34.9 ×10⁻⁶ cm/s | 64% | 83% | 7.30 to 7.80 | – | – | – | – | – | – | – | – | – | – |
| CN(c1ccc(-c2cc3ncn(CC(F)(F)F)c(=O)c3cc2O)nn1)[C@@H]1C[C@H]2CC(F)(F)[C@@H](C1)N2 [Compound 59A, 7-(6-(((1S,3R,5R)-6,6-difluoro-8-azabicyclo[3.2.1]octan-3-yl)(methyl)amino)pyridazin-3-yl)-6-hydroxy-3-(2,2,2-trifluoroethyl)quinazolin-4(3H)-one] | 6.30 to 7.00 | 7.00 to 7.29 | 35 | 2.11 ×10⁻⁶ cm/s | 74 ×10⁻⁶ cm/s | 97% | 96% | 7.30 to 7.80 | – | – | – | – | – | – | – | – | – | – |
| CN(c1ccc(-c2cc3cccnc3cc2O)nn1)[C@@H]1C[C@H]2CC(F)(F)[C@@H](C1)N2 [Compound 45A, 6-(6-(((1S,3R,5R)-6,6-difluoro-8-azabicyclo[3.2.1]octan-3-yl)(methyl)amino)pyridazin-3-yl)quinolin-7-ol] | 7.00 to 7.29 | 6.30 to 7.00 | 6 | 9.45 ×10⁻⁶ cm/s | 54.6 ×10⁻⁶ cm/s | 104% | 115% | 7.30 to 7.80 | – | – | – | – | – | – | – | – | – | – |
| COc1cc(-c2ccc(-c3ccc(N(C)[C@H]4CC5N[C@@H](C4)CC5(F)F)nn3)c(O)c2)cnn1 (single isomer, unassigned) [Compound 2A] | 7.30 to 7.80 | – | 3 | 11.3 ×10⁻⁶ cm/s | 39 ×10⁻⁶ cm/s | 54% | 81% | 7.30 to 7.80 | – | – | – | – | – | – | – | – | – | 7.30 to 7.80 |
